According to US20250228239A1, “MOLECULES HAVING PESTICIDAL UTILITY, AND INTERMEDIATES, COMPOSITIONS, AND PROCESSES, RELATED THERETO” (priority 2024, published 2025):
Where two headings read alike, the source gives them in different places.

What was measured:
[1] = system: Beet Armyworm (Spodoptera exigua, LAPHEG); test: Bioassays on Beet Armyworm (BAW), 128-well diet tray assay; type: in vivo; settings: Spodoptera exigua; for mortality at 50 µg/cm2: 168 h, second instar larvae, 50 μg/cm^2 of test molecule on artificial diet, 25° C., five to seven days, average of eight wells, read-out: BAW % Control (or Mortality) rating
Method: (§1) Certain molecules disclosed in this document were tested against BAW and CL using procedures described in the following examples. In the reporting of the results, the “BAW & CL Rating Table” was used (See Table Section).
Bioassays on BAW were conducted using a 128-well diet tray assay. One to five second instar BAW larvae were placed in each well (3 mL) of the diet tray that had been previously filled with 1 mL of artificial diet to which 50 μg/cm^2 of the test molecule (dissolved in 50 μL of 90:10 acetone-water mixture) had been applied (to each of eight wells) and then allowed to dry. Trays were covered with a clear self-adhesive cover, vented to allow gas exchange, and held at 25° C., 14:10 light-dark for five to seven days. Percent mortality was recorded for the larvae in each well; activity in the eight wells was then averaged. The results are indicated in the table entitled “Table ABC: Biological Results” (See Table Section).

[2] = system: Cabbage Looper (Trichoplusia ni, TRIPNI); test: Bioassays on Cabbage Looper (CL), 128-well diet tray assay; type: in vivo; settings: Trichoplusia ni; for mortality at 50 µg/cm2: 168 h, second instar larvae, 50 μg/cm^2 of test molecule on artificial diet, 25° C., five to seven days, average of eight wells, read-out: CL % Control (or Mortality) rating
Method: as §1
Bioassays on CL were conducted using a 128-well diet tray assay. One to five second instar CL larvae were placed in each well (3 mL) of the diet tray that had been previously filled with 1 mL of artificial diet to which 50 μg/cm^2 of the test molecule (dissolved in 50 μL of 90:10 acetone-water mixture) had been applied (to each of eight wells) and then allowed to dry. Trays were covered with a clear self-adhesive cover, vented to allow gas exchange, and held at 25° C., 14:10 light-dark for five to seven days. Percent mortality was recorded for the larvae in each well; activity in the eight wells was then averaged. The results are indicated in the table entitled “Table ABC: Biological Results” (See Table Section).

[3] = Beet Armyworm, Table ABC / ABC-DP rating, read-out: BAW rating
[4] = Cabbage Looper, Table ABC / ABC-DP rating, read-out: CL rating
[5] = Table ABC: Biological Results, species BAW, read-out: BAW
[6] = Table ABC: Biological Results, species CL, read-out: CL

Row | SMILES | pest or weed control at 50 µg/cm2 [1, 5] [%] | pest or weed control at 50 µg/cm2 [2, 6] [%] | also measured
1 | Nc1c(F)cc(NC(=O)c2cc(NC(=O)[C@H]3[C@H](c4ccc(Cl)c(Cl)c4)C3(Cl)Cl)ccc2Cl)cc1F (relative stereo) [DP3, trans-N-(4-Amino-3,5-difluorophenyl)-2-chloro-5-(2,2-dichloro-3-(3,4-dichlorophenyl)cyclopropane-1-carboxamido)benzamide] | – | – | mortality at 50 µg/cm2 [1]: 50 to 100%; pest or weed control at 50 µg/cm2 [1, 3]: 50 to 100%; mortality at 50 µg/cm2 [2]: 50 to 100%; pest or weed control at 50 µg/cm2 [2, 4]: 50 to 100%
2 | Nc1cc(F)ccc1NC(=O)c1cc(NC(=O)[C@H]2[C@H](c3ccc(Cl)c(Cl)c3)C2(Cl)Cl)ccc1Cl (relative stereo) [DP6, trans-N-(2-amino-4-fluorophenyl)-2-chloro-5-(2,2-dichloro-3-(3,4-dichlorophenyl)cyclopropane-1-carboxamido)benzamide] | – | – | mortality at 50 µg/cm2 [1]: 50 to 100%; pest or weed control at 50 µg/cm2 [1, 3]: 50 to 100%; mortality at 50 µg/cm2 [2]: 50 to 100%; pest or weed control at 50 µg/cm2 [2, 4]: 50 to 100%
3 | Nc1c(F)c(F)c(F)c(NC(=O)c2cc(NC(=O)[C@H]3[C@H](c4cc(Cl)cc(Cl)c4)C3(Cl)Cl)ccc2Cl)c1F (relative stereo) [F1022, trans-N-(3-Amino-2,4,5,6-tetrafluorophenyl)-2-chloro-5-(2,2-dichloro-3-(3,5-dichlorophenyl)cyclopropane-1-carboxamido)benzamide] | 50 to 100 | 50 to 100 | –
4 | Nc1c(F)ccc(NC(=O)c2cc(NC(=O)[C@H]3[C@H](c4ccc(F)c(C(F)F)c4)C3(Cl)Cl)ccc2Cl)c1F (relative stereo) [F1036, trans-N-(3-Amino-2,4-difluorophenyl)-2-chloro-5-(2,2-dichloro-3-(3-(difluoromethyl)-4-fluorophenyl)cyclopropane-1-carboxamido)benzamide] | 50 to 100 | 50 to 100 | –
5 | Cc1ccc(CNc2ccc(NC(=O)c3cc(NC(=O)[C@H]4[C@H](c5cc(Cl)cc(Cl)c5)C4(Cl)Cl)ccc3Cl)c(C)c2)cc1 (relative stereo) [F1041, trans-2-Chloro-5-(2,2-dichloro-3-(3,5-dichlorophenyl)cyclopropane-1-carboxamido)-N-(2-methyl-4-((4-methylbenzyl)amino)phenyl)benzamide] | 50 to 100 | 50 to 100 | –
6 | C=CCN(C(=O)c1cc(NC(=O)[C@H]2[C@H](c3cc(Cl)cc(Cl)c3)C2(Cl)Cl)ccc1Cl)c1ccc(F)cc1C#N (relative stereo) [F1055, trans-N-Allyl-2-chloro-N-(2-cyano-4-fluorophenyl)-5-(2,2-dichloro-3-(3,5-dichlorophenyl)cyclopropane-1-carboxamido)benzamide] | 50 to 100 | 50 to 100 | –
7 | Cc1cc(NC(=O)C(Cl)(Cl)Cl)ccc1NC(=O)c1cc(NC(=O)[C@H]2[C@H](c3ccc(Cl)c(Cl)c3)C2(Cl)Cl)ccc1Cl (relative stereo) [F1060, trans-2-Chloro-5-(2,2-dichloro-3-(3,4-dichlorophenyl)cyclopropane-1-carboxamido)-N-(2-methyl-4-(2,2,2-trichloroacetamido)phenyl)benzamide] | 50 to 100 | 50 to 100 | –
8 | Cc1cc([C@H]2[C@H](C(=O)Nc3ccc(Cl)c(C(=O)Nc4ccc(F)c(N)c4F)c3)C2(Cl)Cl)cc(C(F)(F)F)c1F (relative stereo) [F1068, trans-N-(3-Amino-2,4-difluorophenyl)-2-chloro-5-(2,2-dichloro-3-(4-fluoro-3-methyl-5-(trifluoromethyl)phenyl)cyclopropane-1-carboxamido)benzamide] | 50 to 100 | 50 to 100 | –
9 | CC(C)(C)OC(=O)N(C(=O)OC(C)(C)C)c1c(F)ccc(NC(=O)c2c(Cl)ccc(NC(=O)[C@H]3[C@H](c4ccc(F)c(Cl)c4)C3(Cl)Cl)c2Cl)c1F (relative stereo) [F1107, trans-tert-Butyl-N-tert-butoxycarbonyl-N-[3-[[2,6-dichloro-3-[[2,2-dichloro-3-(3-chloro-4-fluorophenyl)cyclopropanecarbonyl]amino]benzoyl]amino]-2,6-difluoro-phenyl]carbamate] | – | 0 to 50 | –
10 | CC(=O)OCCN(C(=O)OC(C)(C)C)c1ccc(NC(=O)c2cc(NC(=O)[C@H]3[C@H](c4cc(Cl)cc(Cl)c4)C3(Cl)Cl)ccc2Cl)c(C)c1 (relative stereo) [F1129, trans-2-((tert-butoxycarbonyl)(4-(2-chloro-5-(2,2-dichloro-3-(3,5-dichlorophenyl)cyclopropane-1-carboxamido)benzamido)-3-methylphenyl)amino)ethyl acetate] | – | 50 to 100 | –
11 | Cc1cc(NC(=O)[C@H]2[C@H](c3ccc(F)c(Cl)c3)C2(Cl)Cl)cc(C(=O)Nc2ccc(F)c(N(C(=O)OC(C)(C)C)C(=O)OC(C)(C)C)c2F)c1F (relative stereo) [F1138, trans-tert-Butyl-N-tert-butoxycarbonyl-N-[3-[[5-[[2,2-dichloro-3-(3-chloro-4-fluorophenyl)cyclopropanecarbonyl]amino]-2-fluoro-3-methylbenzoyl]amino]-2,6-difluorophenyl]carbamate] | 0 to 50 | – | –
12 | CC(C)(C)OC(=O)N(C(=O)OC(C)(C)C)c1c(F)ccc(NC(=O)c2cc(NC(=O)[C@H]3[C@H](c4ccc(F)c(Cl)c4)C3(Cl)Cl)cc(F)c2Cl)c1F (relative stereo) [F1155, trans-tert-Butyl-N-tert-butoxycarbonyl-N-[3-[[2-chloro-5-[[2,2-dichloro-3-(3-chloro-4-fluorophenyl)cyclopropanecarbonyl]amino]-3-fluorobenzoyl]amino]-2,6-difluorophenyl]carbamate] | 50 to 100 | – | –
13 | CC(=O)Oc1c(F)ccc(NC(=O)c2cc(NC(=O)[C@H]3[C@H](c4cc(Cl)cc(Cl)c4)C3(Cl)Cl)ccc2Cl)c1F (relative stereo) [F1193, trans-3-(2-Chloro-5-(2,2-dichloro-3-(3,5-dichlorophenyl)cyclopropane-1-carboxamido)benzamido)-2,6-difluorophenyl acetate] | – | 50 to 100 | –
14 | CC(C)(C)OC(=O)N(C(=O)OC(C)(C)C)c1c(F)ccc(NC(=O)c2cc(NC(=O)[C@H]3[C@H](c4ccc(F)c(Cl)c4)C3(Cl)Cl)cc(Cl)c2F)c1F (relative stereo) [F1198, trans-tert-Butyl-N-tert-butoxycarbonyl-N-[3-[[3-chloro-5-[[2,2-dichloro-3-(3-chloro-4-fluorophenyl)cyclopropanecarbonyl]amino]-2-fluorobenzoyl]amino]-2,6-difluorophenyl]carbamate] | – | 0 to 50 | –
15 | COc1c(F)cc(NC(=O)[C@H]2[C@H](c3ccc(F)c(Cl)c3)C2(Cl)Cl)cc1C(=O)Nc1ccccc1 (relative stereo) [F1213, trans-5-(2,2-Dichloro-3-(3-chloro-4-fluorophenyl)cyclopropane-1-carboxamido)-3-fluoro-2-methoxy-N-phenylbenzamide] | – | 50 to 100 | –
16 | COc1c(Cl)cc(NC(=O)[C@H]2[C@H](c3ccc(F)c(Cl)c3)C2(Cl)Cl)cc1C(=O)Nc1ccc(F)c(N(C(=O)OC(C)(C)C)C(=O)OC(C)(C)C)c1F (relative stereo) [F1237, trans-tert-Butyl-N-tert-butoxycarbonyl-N-[3-[[3-chloro-5-[[2,2-dichloro-3-(3-chloro-4-fluorophenyl)cyclopropanecarbonyl]amino]-2-methoxybenzoyl]amino]-2,6-difluorophenyl]carbamate] | 0 to 50 | – | –
17 | O=C(Nc1cc(Cl)c(O)c(Cl)c1)c1cc(NC(=O)[C@H]2[C@H](c3cc(Cl)cc(Cl)c3)C2(Cl)Cl)ccc1Cl (relative stereo) [F1360, trans-2-Chloro-5-(2,2-dichloro-3-(3,5-dichlorophenyl)cyclopropane-1-carboxamido)-N-(3,5-dichloro-4-hydroxyphenyl)benzamide] | – | 50 to 100 | –
18 | CCOC(=O)C(F)(F)CNC(=O)c1cc(NC(=O)[C@H]2[C@H](c3cc(Cl)cc(Cl)c3)C2(Cl)Cl)ccc1Cl (relative stereo) [F2076, trans-Ethyl 3-(2-chloro-5-(2,2-dichloro-3-(3,5-dichlorophenyl)cyclopropane-1-carboxamido)benzamido)-2,2-difluoropropanoate] | – | – | pest or weed control at 50 µg/cm2 [2, 4]: 50 to 100%
19 | Cc1c(F)c(NC(=O)c2cc(NC(=O)[C@H]3[C@H](c4ccc(F)c(C(F)(F)F)c4)C3(Cl)Cl)ccc2Cl)cc(N(C(=O)OC(C)(C)C)C(=O)OC(C)(C)C)c1F [F1670, tert-Butyl N-tert-butoxycarbonyl-N-[5-[[2-chloro-5-[[(1R,3R)-2,2-dichloro-3-[4-fluoro-3-(trifluoromethyl)phenyl]cyclopropanecarbonyl]amino]benzoyl]amino]-2,4-difluoro-3-methyl-phenyl]carbamate] | – | – | pest or weed control at 50 µg/cm2 ([1]; Beet Armyworm, rating class, read-out: BAW): 0 to 50%
